Results from ChEMBL document CHEMBL1201862, “PubChem BioAssay data set” (2004).
Calls of active or inactive are those of the source.

Legend:
[1] = biological target: T1, Heat shock factor protein 1 (Mus musculus, UniProt P38532); test: decrease of HSF1-responsive luciferase luminescence – cell-based, NIH3T3, dose retest, confirmation (AID 2382); assay type: functional;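 note: NIH3T3 fibroblasts with HSF1-driven luciferase reporter stressed by proteasome inhibitor MG132; luminescence from HSF1-driven luciferase expression after 8 hours of MG132 stress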
T1 sequence (P38532 whole entry): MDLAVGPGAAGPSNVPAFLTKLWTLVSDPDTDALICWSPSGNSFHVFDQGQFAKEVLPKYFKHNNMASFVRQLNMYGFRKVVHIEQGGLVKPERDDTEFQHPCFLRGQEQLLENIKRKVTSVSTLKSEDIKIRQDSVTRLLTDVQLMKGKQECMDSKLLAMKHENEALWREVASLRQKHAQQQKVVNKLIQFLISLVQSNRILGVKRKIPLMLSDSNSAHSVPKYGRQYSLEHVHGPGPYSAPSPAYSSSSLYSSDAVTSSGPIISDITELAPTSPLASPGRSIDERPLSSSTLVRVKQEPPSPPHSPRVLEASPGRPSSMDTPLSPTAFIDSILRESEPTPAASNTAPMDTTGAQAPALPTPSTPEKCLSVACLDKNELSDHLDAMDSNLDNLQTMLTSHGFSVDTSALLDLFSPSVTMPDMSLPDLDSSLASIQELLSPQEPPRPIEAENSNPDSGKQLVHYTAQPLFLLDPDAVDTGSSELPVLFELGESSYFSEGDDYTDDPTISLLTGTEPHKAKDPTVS

[2] = biological target: T2, Zinc finger protein mex-5 (Caenorhabditis elegans, UniProt Q9XUB2); test: potency of MEX-5 RNA-binding blockers – biochemical, C. elegans, fluorescence polarization, dose response (AID 1960)
T2 sequence (Q9XUB2 whole entry): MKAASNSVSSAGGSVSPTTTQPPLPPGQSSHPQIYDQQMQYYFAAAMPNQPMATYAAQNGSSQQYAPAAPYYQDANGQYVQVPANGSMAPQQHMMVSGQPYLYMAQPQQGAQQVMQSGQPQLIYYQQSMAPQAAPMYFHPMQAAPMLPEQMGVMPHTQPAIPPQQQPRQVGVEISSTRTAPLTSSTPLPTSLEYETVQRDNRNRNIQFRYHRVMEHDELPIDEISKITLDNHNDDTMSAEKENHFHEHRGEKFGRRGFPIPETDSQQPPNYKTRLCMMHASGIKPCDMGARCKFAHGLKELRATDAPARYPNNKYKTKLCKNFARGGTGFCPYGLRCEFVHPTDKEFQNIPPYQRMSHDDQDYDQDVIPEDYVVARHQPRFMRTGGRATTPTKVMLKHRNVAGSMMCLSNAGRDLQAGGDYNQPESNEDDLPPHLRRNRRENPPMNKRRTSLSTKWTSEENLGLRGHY

[3] = biological target: T3, RNA-binding protein pos-1 (Caenorhabditis elegans, UniProt G5EF15); test: disruptors of C. elegans POS-1 RNA interaction – biochemical, fluorescence polarization, dose response (AID 1964);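 note: purified POS-1 fused to maltose binding protein made in E. coli; potency of compounds blocking POS-1 binding to fluorescent RNA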
T3 sequence (G5EF15 whole entry): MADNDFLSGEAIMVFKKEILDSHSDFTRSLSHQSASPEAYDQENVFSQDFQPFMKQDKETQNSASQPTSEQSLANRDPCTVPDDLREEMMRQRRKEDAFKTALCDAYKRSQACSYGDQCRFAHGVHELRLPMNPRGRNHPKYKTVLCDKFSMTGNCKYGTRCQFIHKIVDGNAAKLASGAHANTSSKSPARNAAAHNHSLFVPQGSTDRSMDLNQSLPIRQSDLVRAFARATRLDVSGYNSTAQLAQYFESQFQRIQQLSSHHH

[4] = biological target: T4, Rac GTPase-activating protein 1 (Homo sapiens, UniProt Q9H0H5); test: blockers of MgcRacGAP-driven Rac1 GTP hydrolysis – biochemical, ADP Hunter fluorescence, primary and confirmatory, confirmation (AID 624330); assay type: functional
T4 sequence (Q9H0H5 whole entry): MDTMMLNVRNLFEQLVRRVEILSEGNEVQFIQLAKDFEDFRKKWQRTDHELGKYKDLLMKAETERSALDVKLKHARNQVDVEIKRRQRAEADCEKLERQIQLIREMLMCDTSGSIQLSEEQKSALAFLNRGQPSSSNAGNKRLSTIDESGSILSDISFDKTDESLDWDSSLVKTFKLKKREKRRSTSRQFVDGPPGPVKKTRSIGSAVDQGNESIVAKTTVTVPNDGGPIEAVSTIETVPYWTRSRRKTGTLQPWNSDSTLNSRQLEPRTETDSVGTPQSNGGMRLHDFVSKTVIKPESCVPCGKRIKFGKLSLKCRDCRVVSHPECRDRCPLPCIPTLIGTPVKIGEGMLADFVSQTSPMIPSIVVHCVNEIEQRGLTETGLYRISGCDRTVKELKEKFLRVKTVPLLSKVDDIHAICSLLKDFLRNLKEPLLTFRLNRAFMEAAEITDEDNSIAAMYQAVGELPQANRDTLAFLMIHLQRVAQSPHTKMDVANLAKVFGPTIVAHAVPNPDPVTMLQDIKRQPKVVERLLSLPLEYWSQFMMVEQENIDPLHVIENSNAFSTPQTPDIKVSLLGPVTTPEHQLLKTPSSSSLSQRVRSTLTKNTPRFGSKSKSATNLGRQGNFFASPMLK

[5] = biological target: T5, Corticotropin-releasing factor receptor 2/Corticotropin-releasing factor-binding protein (Homo sapiens, UniProt P24387+Q13324); test: activators of CRF receptor 2 with binding protein – uHTS hits, confirmation (AID 602473); assay type: functional; conditions: read-out: EC50_Mean
T5 sequence (Q13324 whole entry): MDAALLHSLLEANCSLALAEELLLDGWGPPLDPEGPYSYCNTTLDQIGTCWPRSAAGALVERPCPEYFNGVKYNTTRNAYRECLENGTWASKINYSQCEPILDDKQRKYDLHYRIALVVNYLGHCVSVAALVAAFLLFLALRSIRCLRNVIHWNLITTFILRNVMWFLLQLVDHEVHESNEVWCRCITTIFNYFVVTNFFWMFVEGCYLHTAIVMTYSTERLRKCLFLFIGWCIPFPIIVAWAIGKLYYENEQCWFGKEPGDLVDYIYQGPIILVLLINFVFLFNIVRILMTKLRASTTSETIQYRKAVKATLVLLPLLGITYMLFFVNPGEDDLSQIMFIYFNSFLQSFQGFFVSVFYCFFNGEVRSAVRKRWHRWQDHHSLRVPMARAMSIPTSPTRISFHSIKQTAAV
T5 sequence (P24387 whole entry): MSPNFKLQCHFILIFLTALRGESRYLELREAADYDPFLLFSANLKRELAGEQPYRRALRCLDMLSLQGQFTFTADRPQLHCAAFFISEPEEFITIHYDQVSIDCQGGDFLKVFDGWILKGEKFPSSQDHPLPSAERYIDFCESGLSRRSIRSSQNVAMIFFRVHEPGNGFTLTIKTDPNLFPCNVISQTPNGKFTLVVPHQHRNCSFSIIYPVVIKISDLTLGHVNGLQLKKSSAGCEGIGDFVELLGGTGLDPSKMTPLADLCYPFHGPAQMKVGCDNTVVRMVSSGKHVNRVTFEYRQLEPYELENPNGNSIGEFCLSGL

[6] = biological target: T6, Cytochrome P450 1A2 (Homo sapiens, UniProt P05177);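 note: PubChem cytochrome P450 panel assay, CYP1A2 panel member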
T6 sequence (P05177 whole entry): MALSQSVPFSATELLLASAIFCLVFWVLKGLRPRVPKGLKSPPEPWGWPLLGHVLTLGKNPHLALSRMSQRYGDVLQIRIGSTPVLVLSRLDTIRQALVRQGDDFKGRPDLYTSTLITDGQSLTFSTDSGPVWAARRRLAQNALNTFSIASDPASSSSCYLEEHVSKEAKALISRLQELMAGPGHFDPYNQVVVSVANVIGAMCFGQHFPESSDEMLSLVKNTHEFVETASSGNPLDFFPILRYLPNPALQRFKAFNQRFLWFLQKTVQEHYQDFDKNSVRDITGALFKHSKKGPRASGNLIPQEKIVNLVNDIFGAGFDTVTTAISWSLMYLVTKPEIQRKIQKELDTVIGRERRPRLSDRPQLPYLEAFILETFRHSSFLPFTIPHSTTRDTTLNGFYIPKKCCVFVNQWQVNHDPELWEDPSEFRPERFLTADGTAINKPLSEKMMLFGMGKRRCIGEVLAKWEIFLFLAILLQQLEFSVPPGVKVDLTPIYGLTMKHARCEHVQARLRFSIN

[7] = biological target: Cytochrome P450 2C19 (Homo sapiens, UniProt P33261); test: Cytochrome panel assay with activity outcomes. Panel member name: p450-cyp2c19 Compounds with AC50 equal or less than 10 uM are considered active; assay type: functional; conditions: read-out: AC50
Sequence of Cytochrome P450 2C19 (P33261 whole entry): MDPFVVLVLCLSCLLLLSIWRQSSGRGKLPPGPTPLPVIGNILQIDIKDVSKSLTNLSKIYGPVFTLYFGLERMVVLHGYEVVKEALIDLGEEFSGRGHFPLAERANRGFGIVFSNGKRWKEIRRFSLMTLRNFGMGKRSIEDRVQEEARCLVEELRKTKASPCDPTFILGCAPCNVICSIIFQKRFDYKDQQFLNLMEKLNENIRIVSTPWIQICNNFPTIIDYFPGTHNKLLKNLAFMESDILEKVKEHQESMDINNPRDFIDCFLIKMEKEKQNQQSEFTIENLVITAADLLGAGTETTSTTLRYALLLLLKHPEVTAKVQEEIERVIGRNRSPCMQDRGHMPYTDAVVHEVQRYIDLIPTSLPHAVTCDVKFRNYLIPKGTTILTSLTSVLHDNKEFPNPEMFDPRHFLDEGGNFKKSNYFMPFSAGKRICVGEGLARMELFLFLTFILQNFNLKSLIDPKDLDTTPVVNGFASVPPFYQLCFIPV

## Cc1oc(C(=O)O)cc1COc1ccc2c3c(c(=O)oc2c1C)CCC3
[1]
  EC50: > 195 µM (not active)

## Cc1cc(C)c2cc(CN(CCN(C)C)C(=O)Nc3ccccc3Cl)c(O)nc2c1
[1]
  EC50: > 195 µM (not active)

## O=C(NNC(=O)c1ccccc1[N+](=O)[O-])c1csc(N2CCOCC2)n1
[2]
  EC50: 0.731 µM (active)
[3]
  EC50: 84.9 µM (active)

## C=CCN1C(=O)NC(=O)/C(=C/C=C/Nc2ccccc2)C1=O
[2]
  EC50: > 300 µM (inconclusive)
[3]
  EC50: > 300 µM (not active)

## COc1ccc2c(COC(=O)CCS(=O)(=O)c3ccc(C)cc3)cc(=O)oc2c1
[1]
  EC50: > 195 µM (not active)

## COc1cc(C(=O)NC(c2ccccc2)c2ccccc2)cc(OC)c1C
[2]
  EC50: > 300 µM (not active)
[3]
  EC50: > 300 µM (not active)

## O=C(NC(=O)c1cccc(F)c1)OC[C@@H]1CCCN2CCCC[C@H]12
[1]
  EC50: > 195 µM (not active)

## Cc1ccc(-c2nn[nH]n2)o1
[1]
  EC50: > 195 µM (not active)

## Cc1nn(C(C)C(=O)NCCCc2ccccc2)c(=O)c2cc3occc3n12 (stereo not given)
[1]
  EC50: > 195 µM (not active)

## Cc1ccc(C)c(NC(=O)CCc2nnc3ccc(NCc4ccco4)nn23)c1
[1]
  EC50: > 195 µM (not active)

## COc1ccc(CN(C)CCc2ccccn2)cc1OC
[4]
  IC50: 74.6 µM (active)

## O=C(CSc1nnc(CNC(=O)c2cccs2)o1)NCc1ccc(F)cc1
[1]
  EC50: > 195 µM (not active)

## CCOC(=O)C1CCN(C2=NC(=O)/C(=C/c3ccc(O)cc3)S2)CC1
[4]
  IC50: 21.2 µM (active)

## CCOC(=O)c1c(NC(=O)CN2CCCCC2)sc2c1CCC(C=O)=C2Cl
[1]
  EC50: > 195 µM (not active)

## COc1ccc2oc(=O)c(N3C(=O)c4ccccc4C3=O)cc2c1
[1]
  EC50: > 195 µM (not active)

## COc1ccc(NC(=O)CCc2nnc3ccc(N4CCC(C)CC4)nn23)cc1OC
[1]
  EC50: > 195 µM (not active)

## Cc1cccc(C)c1NC(=O)c1cccnc1
[1]
  EC50: > 195 µM (not active)

## O=C(Cc1coc2cc(O)ccc12)NNC(=O)c1cccs1
[4]
  IC50: 32.7 µM (active)

## Cc1ccc2c(c1)N(C(=O)CCC(=O)N1CCN(c3ccccn3)CC1)CCO2
[5]
  EC50: > 53 µM (inactive)

## O=C(Cc1ccccc1)Nc1ccc(N2CCOCC2)cc1N1CCOCC1
[2]
  EC50: > 300 µM (not active)
[3]
  EC50: > 300 µM (not active)

## CC1(C)CC2=Nc3ccccc3NCC2=C(O)C1
[5]
  EC50: > 53 µM (inactive)

## Cc1cc(C)nc(NNC2=CC(=[N+]3CCCCC3)CC(C)(C)C2)n1
[1]
  EC50: > 195 µM (not active)

## CCN(CC)CCN1C(=O)C(O)=C(C(=O)c2cc3cccc(OC)c3o2)C1c1ccc(F)cc1 (stereo not given)
[2]
  EC50: > 300 µM (not active)
[3]
  EC50: > 300 µM (not active)

## CC1CCC2(CC1)N=C(N)Nc1nc3ccccc3n12 (stereo not given)
[6]
  AC50: 12.6 µM (inconclusive)
[7]
  AC50: 17.8 µM (inconclusive)
[1]
  EC50: > 195 µM (not active)

## Cc1onc(-c2ccccc2)c1C(=O)Nc1sc2c(c1C(N)=O)CCC2
[1]
  EC50: > 195 µM (not active)

## Cc1ccc2c(c1)C1C=CCC1C(C(=O)NCCCN1CCOCC1)N2 (stereo not given)
[2]
  EC50: > 300 µM (not active)
[3]
  EC50: > 300 µM (not active)

## COc1cc(C2C(C#N)=C(N)N(N(C)C)C3=C2C(=O)CC(C)(C)C3)ccc1O (stereo not given)
[1]
  EC50: > 195 µM (not active)

## CCOc1ccccc1N1CCN(CC(=O)NC(C)c2ccccc2)CC1 (stereo not given)
[1]
  EC50: > 195 µM (not active)

## COc1cc(/C=C/C(=O)OCC(=O)NCc2ccc(F)cc2)ccc1O
[4]
  IC50: 36.3 µM (active)

## CC(Oc1ccc(Br)cc1)C(=O)Nc1ccc(S(=O)(=O)NC2=NCCCCC2)cc1 (stereo not given)
[5]
  EC50: 4.66 µM (active)

## CCOc1ccc(C2=CC(c3ccccc3)n3ncnc3N2)cc1 (stereo not given)
[5]
  EC50: > 53 µM (inactive)

## COc1cc(/C=C/c2nc(O)c3ccccc3n2)ccc1O
[4]
  IC50: 41.4 µM (active)

## Cc1nn(CC(=O)N(C)C2(C#N)CCCCC2)c(C)c1[N+](=O)[O-]
[5]
  EC50: > 53 µM (inactive)

## Cc1ccc(S(=O)(=O)NCC(=O)N(CC(=O)NCc2ccco2)Cc2ccccc2)cc1
[5]
  EC50: 10.1 µM (active)

## COc1ccc(NC2CCCN(C(=O)COc3ccc(C(C)=O)cc3)C2)cc1 (stereo not given)
[4]
  IC50: 84 µM (active)

## C=CCn1c(N/N=C/c2ccc(O)cc2)nc2ccccc2c1=O
[4]
  IC50: 46.8 µM (active)

## CCOc1ccc(/C=N/NC(=O)C(O)c2ccccc2)c(O)c1 (stereo not given)
[1]
  EC50: > 195 µM (not active)

## COCCNC(=O)Cn1cc(/C=N/NC(=O)c2ccc(Oc3ccc(O)cc3)cc2)c2ccccc21
[4]
  IC50: 53.3 µM (active)

## COc1ccc(/N=C2/SC(C(=O)N3CCN(c4ccccc4)CC3)CC(=O)N2C)cc1 (stereo not given)
[1]
  EC50: > 195 µM (not active)

## COc1cc(/C=N/Nc2ccc(C(F)(F)F)cn2)ccc1O
[4]
  IC50: 36.3 µM (active)

## Cc1cc(/C=N/n2cnnc2)c(C)n1-c1cccc(C(=O)O)c1
[2]
  EC50: > 300 µM (not active)
[3]
  EC50: > 300 µM (not active)
